This assay deals with T1, Rat IKK-2 (Rattus norvegicus, UniProt Q9QY78).
T1 sequence (Q9QY78 1-757): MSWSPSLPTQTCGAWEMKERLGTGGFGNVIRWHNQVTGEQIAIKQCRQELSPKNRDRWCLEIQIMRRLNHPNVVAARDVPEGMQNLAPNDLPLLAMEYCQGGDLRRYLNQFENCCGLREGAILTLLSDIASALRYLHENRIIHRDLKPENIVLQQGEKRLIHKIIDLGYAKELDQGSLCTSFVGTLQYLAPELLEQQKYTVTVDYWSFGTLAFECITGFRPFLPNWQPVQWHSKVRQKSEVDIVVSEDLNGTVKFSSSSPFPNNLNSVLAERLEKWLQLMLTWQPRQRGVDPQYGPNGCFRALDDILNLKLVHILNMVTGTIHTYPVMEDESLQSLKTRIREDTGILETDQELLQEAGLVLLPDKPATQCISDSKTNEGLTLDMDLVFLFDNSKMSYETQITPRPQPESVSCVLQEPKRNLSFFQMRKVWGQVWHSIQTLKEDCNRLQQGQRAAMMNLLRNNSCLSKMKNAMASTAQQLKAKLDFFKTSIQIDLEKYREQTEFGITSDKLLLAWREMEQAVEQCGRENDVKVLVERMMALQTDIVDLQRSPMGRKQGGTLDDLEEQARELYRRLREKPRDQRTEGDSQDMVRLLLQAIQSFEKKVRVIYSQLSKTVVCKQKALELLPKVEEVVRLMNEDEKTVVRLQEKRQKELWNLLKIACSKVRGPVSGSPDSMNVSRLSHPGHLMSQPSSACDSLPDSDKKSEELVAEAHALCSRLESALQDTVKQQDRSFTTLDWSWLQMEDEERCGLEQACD
The assay can be described thus: Rat IKK-2 enzyme assay. The class given is biochemical. The following applies: read-out: IC50 (μM) rIKK-2. The method, then:
Kinase activity was measured using a biotinylated […] peptide (Gly-Leu-Lys-Lys-Glu-Arg-Leu-Leu-Asp-Asp-Arg-His-Asp-Ser32-Gly-Leu-Asp-Ser36-Met-Lys-Asp-Glu-Glu) (American Peptide Co.). 20 μL of the standard reaction mixture contained 5 μM biotinylated IκBα peptide, 0.1 μCi/reaction [γ-^33P] ATP (Amersham) (about 1×10^5 cpm), 1 μM ATP (Sigma), 1 mM DTT (Sigma), 2 mM MgCl2 (Sigma), 2 mM MnCl2 (Sigma), 10 mM NaF (Sigma), 25 mM Hepes (Sigma) buffer, pH. 7.6 and 20 μL enzyme solution (50 nM/rxn or 200 ng/rxn) and 10 μL inhibitor in a final volume of 50 μL. After incubation at 25° C. for 60 min, 150 μL resin was added to each well to stop the reaction. Resin was mixed and allowed to settle for 1 h and 50 μL of supernatant was removed to a Micolite 2 flat bottom plate (Dynex). 150 μL of scintillation fluid (Microscint 40) (Packard) was added to each well. Incorporation of [γ-^33P] ATP was measured using a Top-Count NXT (Packard).

Each structure is given as a SMILES string.

On to `Cc1cc(-n2cc(NC(N)=O)c(C(N)=O)n2)ccc1-c1ccc(O)c(F)c1` [Example 310, 1-(3′-fluoro-4′-hydroxy-2-methyl-biphenyl-4-yl)-4-ureido-1H-pyrazole-3-carboxylic acid amide], for which the IC50 was determined as 0.095 µM.

`CCCOc1ccc(-n2cc(NC(N)=O)c(C(N)=O)n2)cc1C` [Example 306, 4-[(aminocarbonyl)amino]-1-(3-methyl-4-propoxyphenyl)-1H-pyrazole-3-carboxamide]: the IC50 amounted to 0.766 µM.

Consider `NC(=O)Nc1cn(-c2cccc(C(F)(F)F)c2)nc1C(N)=O` [Example 317, 1-(3-trifluoromethyl-phenyl)-4-ureido-1H-pyrazole-3-carboxylic acid amide], for which the IC50 is 1.46 µM.

As to `Cc1cc(-n2cc(NC(N)=O)c(C(N)=O)n2)ccc1OCc1ccccc1` [Example 307, 4-[(aminocarbonyl)amino]-1-[4-(benzyloxy)-3-methylphenyl]-1H-pyrazole-3-carboxamide], the IC50 stood at 6.44 µM.

For the molecule `NC(=O)Nc1cn(-c2ccc(Br)c(O)c2)nc1C(N)=O` [Example 276, 4-[(aminocarbonyl)amino]-1-(4-bromo-3-hydroxyphenyl)-1H-pyrazole-3-carboxamide], the IC50 was 0.194 µM.

With `NC(=O)Nc1cn(-c2ccc([S+]([O-])c3ccncc3)cc2)nc1C(N)=O` (stereo not shown) [Example 294, 1-(3-carbamoyl-1-(4-(pyridin-4-ylsulfinyl)phenyl)-1H-pyrazol-4-yl)urea], the half-maximal inhibitory concentration (IC50) stood at 0.237 µM.

Consider `Cc1cccc(Sc2ccc(-n3cc(NC(N)=O)c(C(N)=O)n3)cc2)c1` [Example 292, 1-(1-(4-(m-tolylthio)phenyl)-3-carbamoyl-1H-pyrazol-4-yl)urea], for which the IC50 was 4.16 µM.

Consider `Cc1cccc(-n2cc(NC(N)=O)c(C(N)=O)n2)c1` [Example 315, 1-m-tolyl-4-ureido-1H-pyrazole-3-carboxylic acid amide], for which the concentration for half-maximal inhibition (IC50) came out at 0.632 µM.

As for `NC(=O)Nc1cn(-c2ccc(S(=O)(=O)c3ccncc3)cc2)nc1C(N)=O` [Example 295, 1-(3-carbamoyl-1-(4-(pyridin-4-ylsulfonyl)phenyl)-1H-pyrazol-4-yl)urea], the half-maximal inhibitory concentration (IC50) is 0.0369 µM.

Regarding `COc1ccccc1-c1ccc(-n2cc(NC(N)=O)c(C(N)=O)n2)cc1F` [Example 267, 4-[(aminocarbonyl)amino]-1-(2-fluoro-2′-methoxy-1,1′-biphenyl-4-yl)-1H-pyrazole-3-carboxamide], the half-inhibitory concentration (IC50) stood at 2.75 µM.

The values above are taken from US20050197338A1, “Substituted pyrazole urea compounds for the treatment of inflammation” (priority 2003, published 2005).
